From patent publication US20250059202A1, “CRYSTAL FORM OF FUSED RING DERIVATIVE, AND PREPARATION METHOD THEREFOR AND USE THEREOF” (SHANGHAI YINGLI PHARMACEUTICAL CO., LTD, priority 2022, published 2025)
Values joined by “and” are separate entries in the source; they are usually repeats but may differ in a detail not shown here. Identical values can stand only once. Values belong to the compound of their own block, whether it stands above or below them.

Columns and labels:
Assay type in all cases: physicochemical
[1] = Dynamic Vapor Sorption (DVS)
Experimental: An Advantage 1.0 dynamic moisture adsorption instrument from SMS was used to detect, the temperature is 25° C., the relative humidity range is 0%-95%, humidity change step is relative humidity 5%, when the value of the mass change rate dm/dt is less than 0.002%, it is considered equilibrium of the balance, when the mass change rate is less than 0.01%/minute within 5 minutes, it is considered as standards of equilibrium in detection process, the maximum equilibrium time is 2 hours.

[2] = Heating experiments (105° C., XRPD); conditions: about 1 hour
[3] = Stability of crystal form I in solvent at room temperature (suspension equilibrium, XRPD)
[4] = Stability of crystal form I in solvent at high temperature (50° C., XRPD)
[5] = Influencing factor stability test, high temperature (60±2° C.)
[6] = Influencing factor stability test, high humidity (25° C., RH92.5±5%)
[7] = Influencing factor stability test, light (4500±500 Lux, 25° C.)
[8] = Accelerated stability (40±2° C., RH 75±5%)
[9] = Hygroscopicity under condition of high humidity
[10] = Competition experiments of crystal form I and crystal form IV in solvents at room temperature; conditions: 7 days, each tested solvent

XRPD after heating compared to before heating [2]: transform to the crystal form I
Compound: CC(C)(Cc1cc2c(-c3ccc(C#N)cc3)cncc2s1)C(=O)O [crystal form III, 3-[4-(4-Cyanophenyl)thieno[2,3-c]pyridin-2-yl]-2,2-dimethylpropanoic acid]

XRPD after heating compared to before heating [2]: unchanged
solid form after competition between crystal form I and crystal form IV (XRPD) [10]: transformed to the crystal form I
Compound: CC(C)(Cc1cc2c(-c3ccc(C#N)cc3)cncc2s1)C(=O)O [crystal form IV, 3-[4-(4-Cyanophenyl)thieno[2,3-c]pyridin-2-yl]-2,2-dimethylpropanoic acid]

The remaining lines, values behind:

Compound: CC(C)(Cc1cc2c(-c3ccc(C#N)cc3)cncc2s1)C(=O)O [crystal form I, 3-[4-(4-Cyanophenyl)thieno[2,3-c]pyridin-2-yl]-2,2-dimethylpropanoic acid]
hygroscopicity (in words) [1]: non-hygroscopic
mass increase compared with the initial mass (DVS) ([1]; relative humidity from 0 to 95%, 25° C.): 0.00944% and 0.01%
XRPD after heating compared to before heating [2]: unchanged
crystal form after suspension equilibrium (XRPD) ([3]; 7 days, single organic solvents (methanol, ethanol, isopropanol, acetone, ethyl acetate etc.)): unchanged
crystal form after suspension equilibrium (XRPD) ([3]; 14 days, water and methanol-, ethanol-, isopropanol-, acetone-water mixtures): unchanged
crystal form after suspension equilibration (XRPD) ([4]; 30 days, methanol-water, ethanol-water, isopropanol-water, acetone-water 50:50): unchanged
crystal form after suspension equilibration (XRPD) ([4]; 43 days, methanol, ethanol, isopropanol, acetone or ethyl acetate): unchanged
Assay ([5]; 0 day): 99.1%
Polymorph ([5]; 0 day): Crystal form I
Total impurities ([5]; 0 day): 0.05%
Water content ([5]; 0 day): 0.05%
Assay ([5]; 5 days): 101.1%
Polymorph ([5]; 5 days): Crystal form I
Total impurities ([5]; 5 days): 0.07%
Water content ([5]; 5 days): 0.04%
Assay ([5]; 10 days): 100.0%
Polymorph ([5]; 10 days): Crystal form I
Total impurities ([5]; 10 days): 0.07%
Water content ([5]; 10 days): 0.04%
Assay ([6]; 0 day): 99.1%
Polymorph ([6]; 0 day): Crystal form I
Total impurities ([6]; 0 day): 0.05%
Water content ([6]; 0 day): 0.05%
Assay ([6]; 5 days): 100.1%
Polymorph ([6]; 5 days): Crystal form I
Total impurities ([6]; 5 days): 0.07%
Water content ([6]; 5 days): 0.06%
Assay ([6]; 10 days): 100.6%
Polymorph ([6]; 10 days): Crystal form I
Total impurities ([6]; 10 days): 0.07%
Water content ([6]; 10 days): 0.09%
Assay ([7]; 0 day): 99.1%
Polymorph ([7]; 0 day): Crystal form I
Total impurities ([7]; 0 day): 0.05%
Water content ([7]; 0 day): 0.05%
Assay ([7]; 5 days): 99.8%
Polymorph ([7]; 5 days): Crystal form I
Total impurities ([7]; 5 days): 0.07%
Water content ([7]; 5 days): 0.04%
Assay ([7]; 10 days): 100.3%
Polymorph ([7]; 10 days): Crystal form I
Total impurities ([7]; 10 days): 0.12%
Water content ([7]; 10 days): 0.09%
Assay ([8]; 0 day): 99.1%
Total impurities ([8]; 0 day): 0.05%
Water content ([8]; 0 day): 0.04%
Assay ([8]; 1 month): 99.2%
Total impurities ([8]; 1 month): 0.05%
Water content ([8]; 1 month): 0.06%
Assay ([8]; 2 months): 98.6%
Total impurities ([8]; 2 months): 0.03%
Water content ([8]; 2 months): 0.03%
Assay ([8]; 3 months): 98.5%
Total impurities ([8]; 3 months): 0.03%
Water content ([8]; 3 months): 0.04%
Assay ([8]; 6 months): 99.7%
Total impurities ([8]; 6 months): 0.05%
Water content ([8]; 6 months): 0.10%

Compound: CC(C)(Cc1cc2c(-c3ccc(C#N)cc3)cncc2s1)C(=O)O [crystal form VI, 3-[4-(4-Cyanophenyl)thieno[2,3-c]pyridin-2-yl]-2,2-dimethylpropanoic acid]
XRPD after heating compared to before heating [2]: transform to the crystal form I

Compound: CC(C)(Cc1cc2c(-c3ccc(C#N)cc3)cncc2s1)C(=O)O [amorphous form, 3-[4-(4-Cyanophenyl)thieno[2,3-c]pyridin-2-yl]-2,2-dimethylpropanoic acid]
hygroscopicity (in words) [9]: strong hygroscopicity
